The numbers were not newly measured in patent publication US10563263B2, “Genetic polymorphisms associated with statin response and cardiovascular diseases, methods of detection and uses thereof” (CELERA CORPORATION, priority 2010, dated 2020), which cites them from elsewhere.

In this data set the test system is major cardiovascular events. The note with it: JUPITER Study, 17,802 individuals (Ridker et al. 2008); cited from earlier work.

For `CC(C)c1nc(N(C)S(C)(=O)=O)nc(-c2ccc(F)cc2)c1/C=C/[C@@H](O)C[C@@H](O)CC(=O)O` [rosuvastatin], the “incidence of major cardiovascular events (MI, stroke, arterial revascularization, hospitalization for unstable angina, death from cardiovascular causes)” value is listed as “significantly reduced the incidence of major cardiovascular events”.
